Results from patent publication US20090311237A1, “Combination therapy using a soluble hyaluronidase and a bisphosphonate” (priority 2008, published 2009).
Read-outs that look alike come from different tables or passages of the source.

Assay: Phase 1 Stage 1 clinical pharmacokinetics of SC ZA co-administered with rHuPH20
Assay type: in vivo, human
Conditions: human, serum, sc; for MRT: read-out: MRT; for Tmax: read-out: Tmax; for AUC(0-inf): read-out: AUC (0-∞); for AUC(0-t): ZA […] SC
Description: A pharmacokinetic study of zoledronic acid (ZA) co-administered with rHuPH20 in human subjects was conducted. The primary objective of the study was to determine the bioavailability of zoledronic acid dosed via subcutaneous (SC) co-administration with human recombinant hyaluronidase PH20 (rHuPH20). […] The patients were administered the prescribed dosage formulations as follows: Cohorts 1-5 were administered a single subcutaneous infusion in a dosage volume of 100 ml at a rate of 3 mL/min. […] The dosing solution is administered via needle or catheter into the SC space of the left anterior thigh (midway between the anterior iliac crest and the cephalad border of the patella). For cohorts 1-5, the dosing solutions were administered by a controlled rate infusion pump at approximately 3 mL/minute. […] The dosing solutions were administered by syringe push bolus injection. […] Serum concentration of ZA was determined using a qualified LC-MS-MS assay after derivatization with diazomethane (Zhu, L S et al. (2006) Rapid Commun. […] The assay range was from 2.0 to 400 ng/mL with a lower limit of quantitation (LLOQ) at 2.0 ng/mL. […] Non-compartmental analysis was used for derivation of primary and secondary pharmacokinetic (PK) parameters. […] Summary statistics (mean, standard deviation, and median) were calculated using JMP or Microsoft Excel.

[1] = ZA 1 mg SC + 24000 U rHuPH20, individual subjects
[2] = ZA 1 mg SC + 24000 U rHuPH20, mean, n=3
[3] = ZA 1 mg SC + 24000 U rHuPH20, median, n=3
[4] = ZA 2 mg SC + 24000 U rHuPH20, individual subjects
[5] = ZA 2 mg SC + 24000 U rHuPH20, mean, n=3
[6] = ZA 2 mg SC + 24000 U rHuPH20, median, n=3
[7] = ZA 5 mg SC + 24000 U rHuPH20, individual subjects
[8] = ZA 5 mg SC + 24000 U rHuPH20, mean, n=3
[9] = ZA 5 mg SC + 24000 U rHuPH20, median, n=3

In the case of `O=P(O)(O)C(O)(Cn1ccnc1)P(=O)(O)O` [ZA, 1-hydroxy-2-(1H-imidazol-1-yl)ethylidene-1,1-bisphosphonic acid], the MRT [1] was 6.93 h, the Tmax [1] was 1.31 h and the Vd/F (ZA 1 mg SC + 24000 U rHuPH20, individual subjects, read-out: Vss/F) was 0.988 L/kg. It also gave a Vd/F (ZA 1 mg SC + 24000 U rHuPH20, individual subjects, read-out: Vz/F) of 2.65 L/kg, a CL/F [2] of 2.15 mL/min/kg and a Cmax [2] of 29.5 ng/mL. The AUC(0-inf) [2] was 134 ng·h/mL, the MRT [2] was 6.61 h and the Tmax [2] was 1.03 h. For the same compound, the Vd/F (ZA 1 mg SC + 24000 U rHuPH20, mean, n=3, read-out: Vss/F) was 0.852 L/kg, the Vd/F (ZA 1 mg SC + 24000 U rHuPH20, mean, n=3, read-out: Vz/F) was 2.13 L/kg and the CL/F [3] was 2.38 mL/min/kg. For the same compound, the Cmax [3] was 30.1 ng/mL, the AUC(0-inf) [3] was 122 ng·h/mL and the MRT [3] was 6.66 h. For the same compound, the Tmax [3] was 1.06 h, the Vd/F (ZA 1 mg SC + 24000 U rHuPH20, median, n=3, read-out: Vss/F) was 0.988 L/kg and the Vd/F (ZA 1 mg SC + 24000 U rHuPH20, median, n=3, read-out: Vz/F) was 2.05 L/kg. The CL/F [4] was 2.25 mL/min/kg, the Cmax [4] was 62.8 ng/mL and the AUC(0-inf) [4] was 246 ng·h/mL. The MRT [4] was 5.72 h, the Tmax [4] was 1.31 h and the Vd/F (ZA 2 mg SC + 24000 U rHuPH20, individual subjects, read-out: Vss/F) was 0.774 L/kg. It also gave a Vd/F (ZA 2 mg SC + 24000 U rHuPH20, individual subjects, read-out: Vz/F) of 2.48 L/kg, a CL/F [5] of 2.11 mL/min/kg and a Cmax [5] of 58.2 ng/mL. For the same compound, the AUC(0-inf) [5] was 262 ng·h/mL, the MRT [5] was 7.5 h and the Tmax [5] was 1.48 h. For the same compound, the Vd/F (ZA 2 mg SC + 24000 U rHuPH20, mean, n=3, read-out: Vss/F) was 0.941 L/kg, the Vd/F (ZA 2 mg SC + 24000 U rHuPH20, mean, n=3, read-out: Vz/F) was 2.87 L/kg and the CL/F [6] was 2.06 mL/min/kg. It also gave a Cmax [6] of 58.7 ng/mL, an AUC(0-inf) [6] of 246 ng·h/mL and an MRT [6] of 6.19 h. The Tmax [6] was 1.56 h, the Vd/F (ZA 2 mg SC + 24000 U rHuPH20, median, n=3, read-out: Vss/F) was 0.774 L/kg and the Vd/F (ZA 2 mg SC + 24000 U rHuPH20, median, n=3, read-out: Vz/F) was 2.48 L/kg. The CL/F [7] was 2.11 mL/min/kg, the Cmax [7] was 131 ng/mL and the AUC(0-inf) [7] was 620 ng·h/mL. The MRT [7] was 10.9 h, the Tmax [7] was 0.81 h and the Vd/F (ZA 5 mg SC + 24000 U rHuPH20, individual subjects, read-out: Vss/F) was 1.39 L/kg. For the same compound, the Vd/F (ZA 5 mg SC + 24000 U rHuPH20, individual subjects, read-out: Vz/F) was 4.27 L/kg, the CL/F [8] was 1.85 mL/min/kg and the Cmax [8] was 132 ng/mL. For the same compound, the AUC(0-inf) [8] was 662 ng·h/mL, the MRT [8] was 12.5 h and the Tmax [8] was 0.98 h. It also gave a Vd/F (ZA 5 mg SC + 24000 U rHuPH20, mean, n=3, read-out: Vss/F) of 1.38 L/kg, a Vd/F (ZA 5 mg SC + 24000 U rHuPH20, mean, n=3, read-out: Vz/F) of 3.92 L/kg and a CL/F [9] of 1.85 mL/min/kg. For the same compound, the Cmax [9] was 131 ng/mL, the AUC(0-inf) [9] was 637 ng·h/mL and the MRT [9] was 12.7 h. It also gave a Tmax [9] of 0.81 h, a Vd/F (ZA 5 mg SC + 24000 U rHuPH20, median, n=3, read-out: Vss/F) of 1.39 L/kg and a Vd/F (ZA 5 mg SC + 24000 U rHuPH20, median, n=3, read-out: Vz/F) of 3.91 L/kg. The AUC(0-t) (AUC (0-12 h), Subj 1, inf 0.554 hr, PH20 23928 U) was 29.2 ng·h/mL, the AUC(0-t) (AUC (0-12 h), Subj 8, inf 0.531 hr, PH20 22944 U) was 28.8 ng·h/mL and the AUC(0-t) (AUC (0-12 h), Subj 11, inf 0.554 hr, PH20 23928 U) was 29.4 ng·h/mL. It also gave an AUC(0-t) (AUC (0-12 h), Subj 16, inf 0.553 hr, PH20 23904 U) of 60.8 ng·h/mL, an AUC(0-t) (AUC (0-12 h), Subj 18, inf […], PH20 23304 U) of 66.2 ng·h/mL and an AUC(0-t) (AUC (0-12 h), Subj 21, inf 0.556 hr, PH20 24000 U) of 62.4 ng·h/mL. For the same compound, the AUC(0-t) (AUC (0-12 h), Subj 25, inf 0.549 hr, PH20 23736 U) was 103 ng·h/mL, the AUC(0-t) (AUC (0-12 h), Subj 26, inf […], PH20 23088 U) was 137 ng·h/mL and the AUC(0-t) (AUC (0-12 h), Subj 31, inf 0.554 hr, PH20 23952 U) was 213 ng·h/mL. The AUC(0-t) (AUC (0-12 h), Subj 32, inf 0.556 hr, PH20 24000 U) was 238 ng·h/mL, the AUC(0-t) (AUC (0-12 h), Subj 51, inf 0.251 hr, PH20 6024 U) was 384 ng·h/mL and the AUC(0-t) (AUC (0-12 h), Subj 77, inf […], PH20 6000 U) was 516 ng·h/mL. It also gave an AUC(0-t) (AUC (0-24 h), Subj 1, inf 0.554 hr, PH20 23928 U) of 29.4 ng·h/mL, an AUC(0-t) (AUC (0-24 h), Subj 8, inf 0.531 hr, PH20 22944 U) of 29.4 ng·h/mL and an AUC(0-t) (AUC (0-24 h), Subj 11, inf 0.554 hr, PH20 23928 U) of 29.9 ng·h/mL. For the same compound, the AUC(0-t) (AUC (0-24 h), Subj 16, inf 0.553 hr, PH20 23904 U) was 62.9 ng·h/mL, the AUC(0-t) (AUC (0-24 h), Subj 18, inf […], PH20 23304 U) was 68.5 ng·h/mL and the AUC(0-t) (AUC (0-24 h), Subj 21, inf 0.556 hr, PH20 24000 U) was 64.7 ng·h/mL. The AUC(0-t) (AUC (0-24 h), Subj 25, inf 0.549 hr, PH20 23736 U) was 112 ng·h/mL, the AUC(0-t) (AUC (0-24 h), Subj 26, inf […], PH20 23088 U) was 147 ng·h/mL and the AUC(0-t) (AUC (0-24 h), Subj 31, inf 0.554 hr, PH20 23952 U) was 228 ng·h/mL. For the same compound, the AUC(0-t) (AUC (0-24 h), Subj 32, inf 0.556 hr, PH20 24000 U) was 257 ng·h/mL, the AUC(0-t) (AUC (0-24 h), Subj 51, inf 0.251 hr, PH20 6024 U) was 430 ng·h/mL and the AUC(0-t) (AUC (0-24 h), Subj 77, inf […], PH20 6000 U) was 566 ng·h/mL. The AUC(0-t) (AUC (0-48 h), Subj 1, inf 0.554 hr, PH20 23928 U) was 29.4 ng·h/mL, the AUC(0-t) (AUC (0-48 h), Subj 8, inf 0.531 hr, PH20 22944 U) was 29.4 ng·h/mL and the AUC(0-t) (AUC (0-48 h), Subj 11, inf 0.554 hr, PH20 23928 U) was 29.9 ng·h/mL. The AUC(0-t) (AUC (0-48 h), Subj 16, inf 0.553 hr, PH20 23904 U) was 64.2 ng·h/mL.
